Source: PubChem BioAssay (NCI)
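Dose response: 5 concentrations. Exposure: 48 h. Format: 96-well plates. Endpoint: linear interpolation; highest concentration if not reached. TGI: concentration producing complete growth inhibition.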

Columns and labels:
Assay in all cases: NCI-60 cell line screen, 48 h
786-0 renal = tested on: 786-0 renal
A498 renal = tested on: A498 renal
A549 NSCLC = tested on: A549 NSCLC
ACHN renal = tested on: ACHN renal
BT-549 breast = tested on: BT-549 breast
CAKI-1 renal = tested on: CAKI-1 renal
CCRF-CEM leukemia = tested on: CCRF-CEM leukemia
COLO 205 colon = tested on: COLO 205 colon
DLD-1 colon = tested on: DLD-1 colon
DMS 114 small cell lung = tested on: DMS 114 small cell lung
DMS 273 small cell lung = tested on: DMS 273 small cell lung
DU-145 prostate = tested on: DU-145 prostate
EKVX NSCLC = tested on: EKVX NSCLC
HCC-2998 colon = tested on: HCC-2998 colon
HCT-116 colon = tested on: HCT-116 colon
HCT-15 colon = tested on: HCT-15 colon
HL-60(TB) leukemia = tested on: HL-60(TB) leukemia
HOP-18 NSCLC = tested on: HOP-18 NSCLC
HOP-62 NSCLC = tested on: HOP-62 NSCLC
HOP-92 NSCLC = tested on: HOP-92 NSCLC
HS 578T breast = tested on: HS 578T breast
HT29 colon = tested on: HT29 colon
IGROV1 ovarian = tested on: IGROV1 ovarian
K-562 leukemia = tested on: K-562 leukemia
KM12 colon = tested on: KM12 colon
KM20L2 colon = tested on: KM20L2 colon
LOX IMVI melanoma = tested on: LOX IMVI melanoma
LXFL 529 NSCLC = tested on: LXFL 529 NSCLC
M14 melanoma = tested on: M14 melanoma
M19-MEL melanoma = tested on: M19-MEL melanoma
MALME-3M melanoma = tested on: MALME-3M melanoma
MCF7 breast = tested on: MCF7 breast
MDA-MB-231 breast = tested on: MDA-MB-231 breast
MDA-MB-435 = tested on: MDA-MB-435
MDA-N = tested on: MDA-N
MOLT-4 leukemia = tested on: MOLT-4 leukemia
NCI-H226 lung = tested on: NCI-H226 lung
NCI-H23 lung = tested on: NCI-H23 lung
NCI-H460 lung = tested on: NCI-H460 lung
NCI-H522 lung = tested on: NCI-H522 lung
NCI/ADR-RES ovarian = tested on: NCI/ADR-RES ovarian
OVCAR-3 ovarian = tested on: OVCAR-3 ovarian
OVCAR-4 ovarian = tested on: OVCAR-4 ovarian
OVCAR-5 ovarian = tested on: OVCAR-5 ovarian
OVCAR-8 ovarian = tested on: OVCAR-8 ovarian
PC-3 prostate = tested on: PC-3 prostate
RPMI-8226 leukemia = tested on: RPMI-8226 leukemia
RXF 393 renal = tested on: RXF 393 renal
RXF-631 renal = tested on: RXF-631 renal
SF-268 CNS = tested on: SF-268 CNS
SF-295 CNS = tested on: SF-295 CNS
SF-539 CNS = tested on: SF-539 CNS
SK-MEL-2 melanoma = tested on: SK-MEL-2 melanoma
SK-MEL-28 melanoma = tested on: SK-MEL-28 melanoma
SK-MEL-5 melanoma = tested on: SK-MEL-5 melanoma
SN12C renal = tested on: SN12C renal
SNB-19 CNS = tested on: SNB-19 CNS
SNB-75 CNS = tested on: SNB-75 CNS
SNB-78 CNS = tested on: SNB-78 CNS
SR leukemia = tested on: SR leukemia
SW-620 colon = tested on: SW-620 colon
T-47D breast = tested on: T-47D breast
TK-10 renal = tested on: TK-10 renal
U251 CNS = tested on: U251 CNS
UACC-257 melanoma = tested on: UACC-257 melanoma
UACC-62 melanoma = tested on: UACC-62 melanoma
UO-31 renal = tested on: UO-31 renal
XF 498 CNS = tested on: XF 498 CNS
SK-OV-3 ovarian = tested on: SK-OV-3 ovarian

SMILES: COC1C(N)C(OC2C(Oc3cccc4c(O)c5c(=O)oc6ccc(C)c7c(=O)oc(c34)c5c67)OC(C)C(O)C2(C)O)OC(C)C1O (stereo unspecified)
- TGI (786-0 renal): 360 nM
- TGI (A498 renal): 155 nM
- TGI (A549 NSCLC): 1490 nM
- TGI (ACHN renal): 1500 nM
- TGI (BT-549 breast): 214 nM
- TGI (CAKI-1 renal): 1450 nM
- TGI (CCRF-CEM leukemia): 3660 nM
- TGI (COLO 205 colon): 383 nM
- TGI (DLD-1 colon): 726 nM
- TGI (DMS 114 small cell lung): 229 nM
- TGI (DMS 273 small cell lung): 399 nM
- TGI (DU-145 prostate): 1330 nM
- TGI (EKVX NSCLC): 1030 nM
- TGI (HCC-2998 colon): 336 nM
- TGI (HCT-116 colon): 118 nM
- TGI (HCT-15 colon): 7550 nM
- TGI (HL-60(TB) leukemia): 9480 nM
- TGI (HOP-18 NSCLC): 3080 nM
- TGI (HOP-62 NSCLC): 258 nM
- TGI (HOP-92 NSCLC): 65.3 nM
- TGI (HS 578T breast): 886 nM
- TGI (HT29 colon): 436 nM
- TGI (IGROV1 ovarian): 132 nM
- TGI (K-562 leukemia): 1560 nM
- TGI (KM12 colon): 366 nM
- TGI (KM20L2 colon): 1210 nM
- TGI (LOX IMVI melanoma): 280 nM
- TGI (LXFL 529 NSCLC): 148 nM
- TGI (M14 melanoma): 750 nM
- TGI (M19-MEL melanoma): 458 nM
- TGI (MALME-3M melanoma): 171 nM
- TGI (MCF7 breast): 1310 nM
- TGI (MDA-MB-231 breast): 1740 nM
- TGI (MDA-MB-435): 219 nM
- TGI (MDA-N): 541 nM
- TGI (MOLT-4 leukemia): 1960 nM
- TGI (NCI-H226 lung): 169 nM
- TGI (NCI-H23 lung): 249 nM
- TGI (NCI-H460 lung): 139 nM
- TGI (NCI-H522 lung): 181 nM
- TGI (NCI/ADR-RES ovarian): 12100 nM
- TGI (OVCAR-3 ovarian): 406 nM
- TGI (OVCAR-4 ovarian): 2280 nM
- TGI (OVCAR-5 ovarian): 1450 nM
- TGI (OVCAR-8 ovarian): 212 nM
- TGI (PC-3 prostate): 1180 nM
- TGI (RPMI-8226 leukemia): 12400 nM
- TGI (RXF 393 renal): 138 nM
- TGI (RXF-631 renal): 1450 nM
- TGI (SF-268 CNS): 104 nM
- TGI (SF-295 CNS): 1210 nM
- TGI (SF-539 CNS): 208 nM
- TGI (SK-MEL-2 melanoma): 37.8 nM
- TGI (SK-MEL-28 melanoma): 340 nM
- TGI (SK-MEL-5 melanoma): 265 nM
- TGI (SN12C renal): 547 nM
- TGI (SNB-19 CNS): 469 nM
- TGI (SNB-75 CNS): 356 nM
- TGI (SNB-78 CNS): 302 nM
- TGI (SR leukemia): 8120 nM
- TGI (SW-620 colon): 1610 nM
- TGI (T-47D breast): 1430 nM
- TGI (TK-10 renal): 1270 nM
- TGI (U251 CNS): 789 nM
- TGI (UACC-257 melanoma): 277 nM
- TGI (UACC-62 melanoma): 147 nM
- TGI (UO-31 renal): 820 nM
- TGI (XF 498 CNS): 208 nM

SMILES: CCCCCCCCCCCCC(Br)C(=O)NCC(N)=O (stereo unspecified)
- TGI (786-0 renal): 20900 nM
- TGI (A498 renal): 26700 nM
- TGI (A549 NSCLC): 34700 nM
- TGI (ACHN renal): 29200 nM
- TGI (CCRF-CEM leukemia): 66300 nM
- TGI (COLO 205 colon): 39200 nM
- TGI (DLD-1 colon): 29800 nM
- TGI (DMS 114 small cell lung): 15200 nM
- TGI (DMS 273 small cell lung): 25000 nM
- TGI (EKVX NSCLC): 42000 nM
- TGI (HCC-2998 colon): 31000 nM
- TGI (HCT-116 colon): 3720 nM
- TGI (HCT-15 colon): 28700 nM
- TGI (HL-60(TB) leukemia): 31000 nM
- TGI (HOP-18 NSCLC): 28200 nM
- TGI (HOP-62 NSCLC): 29300 nM
- TGI (HOP-92 NSCLC): 18900 nM
- TGI (HT29 colon): 36000 nM
- TGI (IGROV1 ovarian): 29800 nM
- TGI (KM12 colon): 28800 nM
- TGI (KM20L2 colon): 42500 nM
- TGI (LOX IMVI melanoma): 42100 nM
- TGI (LXFL 529 NSCLC): 21500 nM
- TGI (M14 melanoma): 24600 nM
- TGI (M19-MEL melanoma): 32500 nM
- TGI (MALME-3M melanoma): 28000 nM
- TGI (NCI-H226 lung): 8790 nM
- TGI (NCI-H23 lung): 14700 nM
- TGI (NCI-H460 lung): 34700 nM
- TGI (NCI-H522 lung): 5220 nM
- TGI (OVCAR-3 ovarian): 32100 nM
- TGI (OVCAR-4 ovarian): 12600 nM
- TGI (OVCAR-5 ovarian): 57300 nM
- TGI (OVCAR-8 ovarian): 33600 nM
- TGI (RXF 393 renal): 8520 nM
- TGI (RXF-631 renal): 18400 nM
- TGI (SF-268 CNS): 17800 nM
- TGI (SF-295 CNS): 29500 nM
- TGI (SF-539 CNS): 27700 nM
- TGI (SK-MEL-2 melanoma): 26400 nM
- TGI (SK-MEL-28 melanoma): 29200 nM
- TGI (SK-MEL-5 melanoma): 18400 nM
- TGI (SK-OV-3 ovarian): 59200 nM
- TGI (SNB-19 CNS): 24300 nM
- TGI (SNB-75 CNS): 11600 nM
- TGI (SNB-78 CNS): 32200 nM
- TGI (SW-620 colon): 52900 nM
- TGI (TK-10 renal): 34700 nM
- TGI (U251 CNS): 24600 nM
- TGI (UACC-257 melanoma): 24700 nM
- TGI (UACC-62 melanoma): 22700 nM
- TGI (UO-31 renal): 6920 nM
- TGI (XF 498 CNS): 3830 nM
